Test results reported in ChEMBL document CHEMBL1151691, “Structure and biological activity of novel FN analogs as flowering inducers” (Bioorg Med Chem, 2008).
Activity calls are given as the source filed them. The calls are words filed in the database; no cut-off is given here.

Each compound was assayed on Lemna aequinoctialis (assay: Induction of flowering in Lemna paucicostata 151 after 10 days).
Assay type: functional, organism-based

Question: Which Activity does the source give for `CC/C=C\C[C@@H]1[C@H](CC(=O)[C@@H](O)CCCCCCCC(=O)OC)O[C@]2(O)CC13C(=CC2=O)NC[C@@H]3O` here?
Answer: The Activity was “Active”.

Question: `CC/C=C\C[C@@H]1[C@H](CC(=O)CCCCCCCCC(=O)O)O[C@]2(O)CC13C(=CC2=O)NC[C@@H]3O` was tested. Which Activity did it give?
Answer: The Activity was “Active”.

Question: `CCCCC[C@@H]1[C@H](CC(=O)CCCCCCCCC(=O)O)O[C@]2(O)CC13C(=CC2=O)NC[C@@H]3O` was tested. Which Activity did it give?
Answer: The Activity was “inactive”.

Question: Which Activity does the source give for `CC/C=C\C[C@@H]1[C@H](CC(=O)[C@H](O)CCCCCCCC(=O)OC)O[C@]2(O)CC13C(=CC2=O)NC[C@@H]3O` here?
Answer: Its Activity is “Active”.

Question: Which Activity does the source give for `CCCCC[C@@H]1[C@H](CC(=O)C(O)CCCCCCCC(=O)O)O[C@]2(O)CC13C(=CC2=O)NC[C@@H]3O` (some centres not stated) here?
Answer: Its Activity is “Active”.

Question: For `CC/C=C\C[C@@H]1[C@H](CC(=O)[C@@H](O)CCCCCCCC(=O)O)O[C@]2(O)CC13C(=CC2=O)N(C)C[C@@H]3O`, which Activity is on record?
Answer: Its Activity is “Active”.

Question: For `CC/C=C\C[C@@H]1[C@H](CC(=O)[C@H](O)CCCCCCCC(=O)O)O[C@]2(O)CC13C(=CC2=O)N(C)C[C@@H]3O`, which Activity is on record?
Answer: The Activity was “Active”.
